PubChem BioAssay (NCI)
Where “and” joins values, the source holds several entries; their conditions need not be identical. Equal values may be shown once.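 Dose response: 5 concentrations. Exposure: 48 h. Format: 96-well plates. Endpoint: linear interpolation; highest concentration if not reached. The concentration for 50% growth inhibition is given as GI50. TGI is the concentration that stops growth completely.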

What was measured:
Assay in all cases: NCI tumour cell line growth inhibition, 48 h
KM12 colon = tested on: KM12 colon
ACHN renal = tested on: ACHN renal
LXFL 529 NSCLC = tested on: LXFL 529 NSCLC
EKVX NSCLC = tested on: EKVX NSCLC
SF-539 CNS = tested on: SF-539 CNS
KM20L2 colon = tested on: KM20L2 colon
A549 NSCLC = tested on: A549 NSCLC
SK-MEL-5 melanoma = tested on: SK-MEL-5 melanoma
LOX IMVI melanoma = tested on: LOX IMVI melanoma
HS 578T breast = tested on: HS 578T breast

Row | Compound | TGI (KM12 colon) | TGI (ACHN renal) | TGI (LXFL 529 NSCLC) | TGI (EKVX NSCLC) | TGI (SF-539 CNS) | TGI (KM20L2 colon) | TGI (A549 NSCLC) | TGI (SK-MEL-5 melanoma) | TGI (LOX IMVI melanoma) | GI50 (KM12 colon) | GI50 (LOX IMVI melanoma) | GI50 (ACHN renal) | GI50 (HS 578T breast) | TGI (HS 578T breast) | GI50 (EKVX NSCLC) | GI50 (SF-539 CNS) | GI50 (SK-MEL-5 melanoma) | GI50 (A549 NSCLC)
1 | CC(C)(C)C(=O)Nc1cccc2oc(-c3ccccc3)cc12 | > 100 µM | > 100 µM | > 100 µM | > 100 µM | > 100 µM | > 100 µM | > 100 µM | – | – | – | – | – | – | – | – | – | – | –
2 | CN(C)CCC(CCN(C)C)=NO | > 100 µM | > 100 µM | > 100 µM | > 100 µM | > 100 µM | > 100 µM | > 100 µM | > 100 µM | – | – | – | – | – | – | – | – | – | –
3 | CCOc1ccc(/C=C/c2cc(OC)c(OC)c(OC)c2)cc1 | > 41.6 µM | > 64.8 µM | 15.1 µM | > 100 µM | 3.02 µM | 6.81 µM | > 100 µM | 14.6 µM | > 100 µM | – | – | – | – | – | – | – | – | –
4 | CC(C)(C)c1cc(CCCCCCCC2(CCCCCCCc3cc(C(C)(C)C)cc(C(C)(C)C)c3)OC(COCCOCCCCCC#N)C(COCCOCCCCCC#N)O2)cc(C(C)(C)C)c1 (stereo not given) | > 100 µM | > 100 µM | > 100 µM | > 100 µM | – | > 100 µM | > 100 µM | > 100 µM | > 100 µM | – | – | – | – | – | – | – | – | –
5 | NS(=O)(=O)c1ccc(NC(=O)Cc2nc3ccccc3s2)cc1 | 30.8 µM | 29.3 µM | 30.7 µM | 37.2 µM | 32.3 µM | 33.9 µM | 37.9 µM | 34.5 µM | – | – | – | – | – | – | – | – | – | –
6 | O=C(OCCCl)C1OC(n2cc(F)c(=O)[nH]c2=O)CC1O (stereo not given) | > 100 µM | > 100 µM | > 100 µM | > 100 µM | > 100 µM | > 100 µM | > 100 µM | > 100 µM | > 100 µM | – | – | – | – | – | – | – | – | –
7 | CC1=NN(C(=O)Nc2ccc(Cl)cc2)C(=O)C2CCC(=O)N12 (stereo not given) | > 100 µM | > 100 µM | > 100 µM | > 100 µM | > 100 µM | > 100 µM | > 100 µM | > 100 µM | > 100 µM | – | – | – | – | – | – | – | – | –
8 | Cc1[nH]c2ccccc2c1CC/C(=N\Nc1ccccc1)c1ccccc1 | > 100 µM | > 100 µM | – | > 100 µM | > 100 µM | > 100 µM | > 100 µM | > 100 µM | – | – | – | – | – | – | – | – | – | –
9 | C[C@@H](NS(=O)(=O)c1ccc(NC(=O)c2ccccc2)cc1)C(=O)O | > 100 µM | > 100 µM | > 100 µM | > 100 µM | > 100 µM | > 100 µM | > 100 µM | > 100 µM | > 100 µM | – | – | – | – | – | – | – | – | –
10 | Cc1ccc(NC(=O)CC/C(CC(=O)C(C)(C)C)=N\NC(=O)C[n+]2ccccc2)cc1C | > 100 µM | > 100 µM | > 100 µM | > 100 µM | > 100 µM | > 100 µM | > 100 µM | > 100 µM | > 100 µM | – | – | – | – | – | – | – | – | –
11 | C=C1C(=O)O[C@H]2[C@H](OC(C)=O)[C@@H](C)CCCC3(C)OC3CCC3(CO3)[C@H](O)C[C@@H]12 (stereo not given in full) | 28.5 µM | 22.3 µM | – | 30.3 µM | 37.1 µM | – | 74.8 µM | 24.9 µM | 25.2 µM | 13.6 µM | 12.6 µM | 10.4 µM | 11.8 µM | 43.4 µM | 12.1 µM | 15.4 µM | 11.9 µM | 19.8 µM
12 | CC1(C)N=C(N)N=C(N)N1c1ccc(Cl)cc1 | > 100 µM | > 100 µM | – | > 100 µM | > 100 µM | – | > 100 µM | > 100 µM | > 100 µM | 6.68 µM | 2.85 µM | 9.55 µM | > 100 µM | > 100 µM | 0.763 µM | 1.94 µM | 3.99 µM | 1.25 µM
13 | COC(=O)c1cc2oc(/C=C3/SC(=S)N(N)C3=O)cc2n1Cc1ccccc1 | > 29.7 µM | 25.8 µM | – | > 81.8 µM | 6.3 µM | – | 33.1 µM | 7.03 µM | 16 µM | 6.05 µM | 2.61 µM | 7.08 µM | 0.699 µM | 3.5 µM | 7.17 µM | 2.3 µM | 1.99 µM | 5.12 µM
14 | CC(C)(C)c1cc(NC(=O)Nc2ccc(-c3cn4c(n3)sc3cc(OCCN5CCOCC5)ccc34)cc2)no1 | 27.3 µM and 14.6 µM and > 10 µM | 18.1 µM and 13.2 µM and > 10 µM | – | 34.9 µM and 21.6 µM and > 10 µM | 15.4 µM and 1.65 µM and > 10 µM | – | 19.5 µM and 13.8 µM and > 10 µM | 18.2 µM and 3.31 µM and > 10 µM | 30.1 µM and 8.21 µM and > 10 µM | 0.532 µM and 0.496 µM and 0.438 µM | 5.86 µM and 0.928 µM and 5.07 µM | 3.48 µM and 1.22 µM and 8.06 µM | 1.35 µM and 0.328 µM and 1.75 µM | 25.3 µM and 2.92 µM and > 10 µM | 13 µM and 4.34 µM and > 10 µM | 0.698 µM and 0.303 µM and 0.623 µM | 3.81 µM and 0.985 µM and 1.97 µM | 3.93 µM and 1.48 µM and 6.89 µM
15 | Cc1cnc2oc3ccc(O)cc3c2c1-c1ccccc1 | > 100 µM | > 100 µM | – | 65.5 µM | 37.5 µM | – | > 100 µM | > 100 µM | > 100 µM | > 100 µM | 21.6 µM | 18.8 µM | 19.6 µM | 74.4 µM | 13.8 µM | 16.1 µM | 35.8 µM | > 100 µM
16 | CCOC(=O)C(CCC(N)=O)(CCC(=O)OC)C(=O)OCC | > 100 µM | > 100 µM | > 100 µM | > 100 µM | > 100 µM | > 100 µM | > 100 µM | – | > 100 µM | – | – | – | – | – | – | – | – | –
17 | OCC[N+]12CCCN1CCC2 | > 100 µM | > 100 µM | > 100 µM | > 100 µM | > 100 µM | > 100 µM | > 100 µM | > 100 µM | > 100 µM | – | – | – | – | – | – | – | – | –
18 | CN(C)CC(=O)Nc1ccc2ncnc(Nc3ccc(Oc4cccc(C(F)(F)F)c4)c(Cl)c3)c2c1 | 4 µM | 2.49 µM | – | 8.05 µM | 3.18 µM | – | 10.2 µM | 3.09 µM | 3.13 µM | 1.91 µM | 1.73 µM | 1.13 µM | 1.78 µM | 4.58 µM | 1.7 µM | 1.73 µM | 1.69 µM | 2.82 µM
19 | Cc1ccc(/C=C(\NC(=O)c2ccccc2)c2nc3ccccc3[nH]2)cc1 | > 100 µM | > 100 µM | > 100 µM | > 100 µM | > 100 µM | > 100 µM | > 100 µM | 36.7 µM | – | – | – | – | – | – | – | – | – | –
20 | C=CC(=O)N1C[C@@H]2CCOc3c(Cl)c(-c4c(O)cccc4F)c(F)c4ncnc(c34)N2C[C@H]1C | 36.1 µM | 22.2 µM | – | 27.8 µM | 25.8 µM | – | 34.7 µM | 25.9 µM | 24.4 µM | 14.7 µM | 12 µM | 10.5 µM | 16.5 µM | 89.2 µM | 14.4 µM | 12.9 µM | 13.1 µM | 15.3 µM
